Measured values taken from patent publication US20060281771A1, “SYNERGISTIC MODULATION OF FLT3 KINASE USING AMINOQUINOLINE AND AMINOQUINAZOLINE KINASE MODULATORS” (priority 2005, published 2006).

Key:
MV4-11 cells = test: Inhibition of MV4-11 cell proliferation (CellTiterGlo, 72 h); format: cell-based; details: Homo sapiens; 72 h growth inhibition
Protocol: To assess the cellular potency of the FLT3 inhibitors of Formula I′, FLT3 specific growth inhibition was measured in the leukemic cell line MV4-11 (ATCC Number: CRL-9591). […] MV4-11 cells cannot grow and survive without active FLT3ITD.
To measure proliferation inhibition by test compounds, the luciferase based CellTiterGlo reagent (Promega), which quantifies total cell number based on total cellular ATP concentration, was used. Cells are plated at 10,000 cells per well in 100 ul of in RPMI media containing penn/strep, 10% FBS and 1 ng/ml GM-CSF or 1 ng/ml IL-3 for MV4-11 and Baf3 cells respectively.
Compound dilutions or 0.1% DMSO (vehicle control) are added to cells and the cells are allowed to grow for 72 hours at standard cell growth conditions (37° C., 5% CO2). For activity measurements in MV4-11 cells grown in 50% plasma, cells were plated at 10,000 cells per well in a 1:1 mixture of growth media and human plasma (final volume of 100 μL). To measure total cell growth an equal volume of CellTiterGlo reagent was added to each well, according to the manufacturer's instructions, and luminescence was quantified. Total cell growth was quantified as the difference in luminescent counts (relative light units, RLU) of cell number at Day 0 compared to total cell number at Day 3 (72 hours of growth and/or compound treatment). One hundred percent inhibition of growth is defined as an RLU equivalent to the Day 0 reading. Zero percent inhibition was defined as the RLU signal for the DMSO vehicle control at Day 3 of growth. All data points are an average of triplicate samples. […] Inhibition and IC50 data analysis was done with GraphPad Prism using a non-linear regression fit with a multiparamater, sigmoidal dose-response (variable slope) equation.
MV4-11 cells express the FLT3 internal tandem duplication mutation, and thus are entirely dependent upon FLT3 activity for growth. […] In contrast, the Baf3 cell proliferation is driven by the cytokine IL-3 and thus are used as a non-specific toxicity control for test compounds.

[1] = molecular target: T1, wild-type FLT3 phosphorylation in Baf3 FLT3 cells (Homo sapiens, UniProt P36888); test: Cell-based FLT3 receptor ELISA; details: FLT ligand-induced FLT3 phosphorylation
T1 construct: host or cells: Baf3 (murine B cell lymphoma line)
T1 sequence (P36888 27-993): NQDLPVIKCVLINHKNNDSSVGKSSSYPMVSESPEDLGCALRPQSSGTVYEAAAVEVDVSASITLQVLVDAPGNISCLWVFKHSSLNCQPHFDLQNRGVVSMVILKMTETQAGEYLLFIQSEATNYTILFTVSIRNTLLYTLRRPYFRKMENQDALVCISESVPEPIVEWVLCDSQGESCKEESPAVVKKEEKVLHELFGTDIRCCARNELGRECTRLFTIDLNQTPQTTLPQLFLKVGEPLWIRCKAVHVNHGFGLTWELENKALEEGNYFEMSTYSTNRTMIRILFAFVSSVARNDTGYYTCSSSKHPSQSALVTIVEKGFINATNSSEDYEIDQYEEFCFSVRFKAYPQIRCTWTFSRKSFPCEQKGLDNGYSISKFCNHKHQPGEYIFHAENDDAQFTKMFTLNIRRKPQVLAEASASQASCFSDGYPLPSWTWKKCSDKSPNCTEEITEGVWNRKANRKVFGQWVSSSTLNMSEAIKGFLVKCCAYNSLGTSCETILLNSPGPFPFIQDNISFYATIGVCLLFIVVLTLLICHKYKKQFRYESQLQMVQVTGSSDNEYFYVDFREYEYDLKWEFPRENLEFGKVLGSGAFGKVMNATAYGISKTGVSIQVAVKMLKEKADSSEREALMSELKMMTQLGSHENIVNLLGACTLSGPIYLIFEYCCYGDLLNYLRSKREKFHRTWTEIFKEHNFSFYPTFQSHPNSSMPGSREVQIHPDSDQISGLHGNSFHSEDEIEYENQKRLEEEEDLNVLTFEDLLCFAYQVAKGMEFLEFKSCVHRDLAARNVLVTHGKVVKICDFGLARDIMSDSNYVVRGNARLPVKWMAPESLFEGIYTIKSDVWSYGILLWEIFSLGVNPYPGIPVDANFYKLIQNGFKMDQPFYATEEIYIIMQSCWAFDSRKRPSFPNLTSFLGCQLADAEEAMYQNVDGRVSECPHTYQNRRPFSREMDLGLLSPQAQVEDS
Protocol: Specific cellular inhibition of FLT ligand-induced wild-type FLT3 phosphorylation was measured in the following manner: Baf3 FLT3 cells overexpressing the FLT3 receptor were obtained from Dr. Michael Heinrich (Oregon Health and Sciences University). The Baf3 FLT3 cell lines were created by stable transfection of parental Baf3 cells (a murine B cell lymphoma line dependent on the cytokine IL-3 for growth) with wild-type FLT3. Cells were selected for their ability to grow in the absence of IL-3 and in the presence of FLT3 ligand.
Baf3 cells were maintained in RPMI 1640 with 10% FBS, penn/strep and 10 ng/ml FLT ligand at 37° C., 5% CO2. To measure direct inhibition of the wild-type FLT3 receptor activity and phosphorylation a sandwich ELISA method was developed similar to those developed for other RTKs (see Sadick, M D, Sliwkowski, M X, Nuijens, A, Bald, L, Chiang, N, Lofgren, J A, Wong W L T. Analysis of Heregulin-Induced ErbB2 Phosphorylation with a High-Throughput Kinase Receptor Activation Enzyme-Linked Immunsorbent Assay, Analytical Biochemistry. 1996; 235:207-214 and Baumann C A, Zeng L, Donatelli R R, Maroney A C. Development of a quantitative, high-throughput cell-based enzyme-linked immunosorbent assay for detection of colony-stimulating factor-1 receptor tyrosine kinase inhibitors. J Biochem Biophys Methods. 2004; 60:69-79.). 200 μL of Baf3FLT3 cells (1×10^6/mL) were plated in 96 well dishes in RPMI 1640 with 0.5% serum and 0.01 ng/mL IL-3 for 16 hours prior to 1 hour compound or DMSO vehicle incubation. Cells were treated with 100 ng/mL Flt ligand (R&D Systems Cat# 308-FK) for 10 min. at 37° C. Cells were pelleted, washed and lysed in 100 ul lysis buffer (50 mM Hepes, 150 mM NaCl, 10% Glycerol, 1% Triton-X-100, 10 mM NaF, 1 mM EDTA, 1.5 mM MgCl2, 10 mM NaPyrophosphate) supplemented with phosphatase (Sigma Cat# P2850) and protease inhibitors (Sigma Cat #P8340). Lysates were cleared by centrifugation at 1000×g for 5 minutes at 4° C. Cell lysates were transferred to white wall 96 well microtiter (Costar #9018) plates coated with 50 ng/well anti-FLT3 antibody (Santa Cruz Cat# sc-480) and blocked with SeaBlock reagent (Pierce Cat#37527). Lysates were incubated at 4° C. for 2 hours. Plates were washed 3× with 200 ul/well PBS/0.1% Triton-X-100. Plates were then incubated with 1:8000 dilution of HRP-conjugated anti-phosphotyrosine antibody (Clone 4G10, Upstate Biotechnology Cat#16-105) for 1 hour at room temperature. Plates were washed 3× with 200 ul/well PBS/0.1% Triton-X-100. Signal detection with Super Signal Pico reagent (Pierce Cat#37070) was done according to manufacturer's instruction with a Berthold microplate luminometer. All data points are an average of triplicate samples. […] Inhibition and IC50 data analysis was done with GraphPad Prism using a non-linear regression fit with a multiparamater, sigmoidal dose-response (variable slope) equation.

| SMILES | IC50 (MV4-11 cells) [nM] | IC50 [1] [nM] |
| --- | --- | --- |
| COc1cc2ncnc(N3CCC(NC(=O)Nc4ccc(N5CCCCC5)cc4)C3)c2cc1OC (centres unmarked) [Compound 47, 1-[1-(6,7-Dimethoxy-quinazolin-4-yl)-pyrrolidin-3-yl]-3-(4-piperidin-1-yl-phenyl)-urea] | 3900 | – |
| COc1cc2ncnc(N3CCC(NC(=O)Nc4ccc(N5CCOCC5)cc4)C3)c2cc1OC (centres unmarked) [Compound 43, 1-[1-(6,7-Dimethoxy-quinazolin-4-yl)-pyrrolidin-3-yl]-3-(4-morpholin-4-yl-phenyl)-urea] | > 5000 | – |
| COc1cc2ncnc(N3CCC(NC(=O)Nc4ccc(OC5CCC5)nc4)C3)c2cc1OC (centres unmarked) [Compound 44, 1-(6-Cyclobutoxy-pyridin-3-yl)-3-[1-(6,7-dimethoxy-quinazolin-4-yl)-pyrrolidin-3-yl]-urea] | 1000 | – |
| CC(C)Oc1ccc(NC(=O)OC2CCN(c3ccnc4ccccc34)CC2)cc1 [Compound 41] | > 10000 | – |
| COc1cc2ncnc(N3CCC(NC(=O)Nc4ccc(Cl)cc4)C3)c2cc1OC (centres unmarked) [Compound 48, 1-(4-Chloro-phenyl)-3-[1-(6,7-dimethoxy-quinazolin-4-yl)-pyrrolidin-3-yl]-urea] | 2500 | – |
| COc1cc2ncc(C#N)c(N3CCC(OC(=O)Nc4ccc(C(C)C)cc4)CC3)c2cc1OC [Compound 42, (4-Isopropyl-phenyl)-carbamic acid 1-(3-cyano-6,7-dimethoxy-quinolin-4-yl)-piperidin-4-yl ester] | 2100 | – |
| COc1cc2ncnc(N3CCC(NC(=O)Nc4ccc(N5CCCC5)nc4)C3)c2cc1OC (centres unmarked) [Compound 46, 1-[1-(6,7-Dimethoxy-quinazolin-4-yl)-pyrrolidin-3-yl]-3-(6-pyrrolidin-1-yl-pyridin-3-yl)-urea] | 3500 | – |
| COc1cc2ncnc(N3CCC(NC(=O)Nc4ccc(Cl)cc4)CC3)c2cc1OC [Compound 61, 1-(4-Chloro-phenyl)-3-[1-(6,7-dimethoxy-quinazolin-4-yl)-piperidin-4-yl]-urea] | 9400 | – |

The next lines start with the values.

| IC50 (MV4-11 cells) [nM] | IC50 [1] [nM] | SMILES |
| --- | --- | --- |
| 1 | 1 | COc1cc2ncnc(N3CCC(NC(=O)Nc4ccc(C(C)C)cc4)CC3)c2cc1OC [Compound 66, 1-[1-(6,7-Dimethoxy-quinazolin-4-yl)-piperidin-4-yl]-3-(4-isopropyl-phenyl)-urea] |
| 410 | 43 | COc1cc2ncnc(N3CCC(NC(=O)Nc4ccc(N5CCOCC5)cc4)CC3)c2cc1OC [Compound 59, 1-[1-(6,7-Dimethoxy-quinazolin-4-yl)-piperidin-4-yl]-3-(4-morpholin-4-yl-phenyl)-urea] |
| 1700 | – | COc1cc2ncnc(N3CCC(NC(=O)Nc4ccc(C5CCCCC5)cc4)C3)c2cc1OC (centres unmarked) [Compound 50, 1-(4-Cyclohexyl-phenyl)-3-[1-(6,7-dimethoxy-quinazolin-4-yl)-pyrrolidin-3-yl]-urea] |
| 528 | 18 | COc1cc2ncnc(N3CCC(NC(=O)Nc4ccc(N5CCCC5)cc4)CC3)c2cc1OC [Compound 60, 1-[1-(6,7-Dimethoxy-quinazolin-4-yl)-piperidin-4-yl]-3-(4-pyrrolidin-1-yl-phenyl)-urea] |
| 830 | 6600 | COc1cc2ncnc(N3CCC(NC(=O)Nc4ccc(N(C)C)cc4)C3)c2cc1OC (centres unmarked) [Compound 52, 1-[1-(6,7-Dimethoxy-quinazolin-4-yl)-pyrrolidin-3-yl]-3-(4-dimethylamino-phenyl)-urea] |
| 16 | 11 | COc1ccc2ncnc(N3CCC(NC(=O)Nc4ccc(C(C)C)cc4)CC3)c2c1 [Compound 64, 1-(4-Isopropyl-phenyl)-3-[1-(6-methoxy-quinazolin-4-yl)-piperidin-4-yl]-urea] |
| 502 | 20 | CC(C)c1ccc(NC(=O)NC2CCN(c3ncnc4ccccc34)CC2)cc1 [Compound 63, 1-(4-Isopropyl-phenyl)-3-(1-quinazolin-4-yl-piperidin-4-yl)-urea] |
| 1100 | – | COc1cc2ncnc(N3CCC(NC(=O)Nc4ccc(OC5CCCC5)nc4)C3)c2cc1OC (centres unmarked) [Compound 45, 1-(6-Cyclopentyloxy-pyridin-3-yl)-3-[1-(6,7-dimethoxy-quinazolin-4-yl)-pyrrolidin-3-yl]-urea] |
| 1200 | – | COc1cc2ncnc(N3CCC(NC(=O)Nc4ccc(Oc5ccccc5)cc4)C3)c2cc1OC (centres unmarked) [Compound 51, 1-[1-(6,7-Dimethoxy-quinazolin-4-yl)-pyrrolidin-3-yl]-3-(4-phenoxy-phenyl)-urea] |
| 1500 | – | COc1cc2ncnc(N3CCC(NC(=O)Nc4ccc(OC5CCCC5)cc4)C3)c2cc1OC (centres unmarked) [Compound 53, 1-(4-Cyclopentyloxy-phenyl)-3-[1-(6,7-dimethoxy-quinazolin-4-yl)-pyrrolidin-3-yl]-urea] |
| 740 | – | COc1cc2ncnc(N3CCC(COC(=O)Nc4ccc(OC5CCCC5)cc4)CC3)c2cc1OC [Compound 56, (4-Cyclopentyloxy-phenyl)-carbamic acid 1-(6,7-dimethoxy-quinazolin-4-yl)-piperidin-4-ylmethyl ester] |
| 1500 | – | COc1cc2ncnc(N3CCC(OC(=O)Nc4ccc(OC5CCCC5)cc4)C3)c2cc1OC (centres unmarked) [Compound 54, (4-Cyclopentyloxy-phenyl)-carbamic acid 1-(6,7-dimethoxy-quinazolin-4-yl)-pyrrolidin-3-yl ester] |
